Tests used:
monocytes = assay: Monocytopenia in cancer patients after in vivo treatment (blood formula); parameters: species or system human; conditions: of 9 patients; decrease = 25% inhibition in at least one cycle; % of leukocytes and monocytes/ul of blood
Excerpt: We also investigated whether the in vivo treatment with ecteinascidin 743 caused a measurable monocytopenia in cancer patients. Monocyte values were obtained from blood formula during routine clinical analysis.

CCL2 [1] = assay: CCL2 production by LPS-stimulated in vitro differentiated macrophages (ELISA); assay type: cell-based; conditions: Homo sapiens, Macrophage; 5 nM, LPS 100 ng/ml, 16 h, n=5
Method: (§1) Supernatants of untreated cells or cells treated with ecteinascidin 743 or other anti-neoplastic agents were collected after 24 h culture and frozen. Monocytes, macrophages and TAM were stimulated with 100 ng/ml LPS to induce maximal cytokine production. Determination of cytokines CCL2, TNF and IL-6 was measured by specific ELISA following the manufacturer's instructions.
(§2) Monocytes and in vitro differentiated macrophages were stimulated with LPS (100 ng/ml). After 1 h LPS stimulation they were treated with ecteinascidin 743. After 16 h incubation, cell supernatants were harvested and tested in ELISA. Under these treatment conditions cell viability was usually >85% for concentrations up to 5 nM. […] Mean inhibition at 5 nM, for monocytes, was 65% (range 50-80%, n=5) and was 50% (range 25-75%, n=5) for in vitro differentiated macrophages. Results are mean+/−SE of 3-5 experiments

CCL2 [2] = assay: Constitutive CCL2 production by freshly isolated ovarian tumour cells (ELISA); assay type: cell-based, human; conditions: 16 h
Excerpt: (§3) Tumour-associated macrophages (TAM) and tumour cells were isolated from the ascitic fluid of patients with diagnosed ovarian adenocarcinoma, admitted to the Clinic of Obstetrics and Gynecology of the University of Milan-Bicocca, S Gerardo Hospital. Cells contained in the ascitic fluid were centrifuged and isolated by differential density gradients of Ficoll and Percoll, and plastic adherence as previously described (see Allavena, P., Peccatori, F., Maggioni, D., Erroi, A., Sironi, M., Colombo, N., Lissoni, A., Galazka, A., Meiers, W., Mangioni, C., et al. Intraperitoneal recombinant gamma-interferon in patients with recurrent ascitic ovarian carcinoma: modulation of cytotoxicity and cytokine production in tumour-associated effectors and of major histocompatibility antigen expression on tumour cells. Cancer Res, 50: 7318-7323, 1990). Purity of TAM and tumour cell preparations was usually>65±10% as defined by morphology and phenotype analysis. Cells were treated with ecteinascidin 743 at the indicated concentrations and cultured for 1-5 days, as specified in figure legends. […]
(§4) Monocytes, macrophages and TAM were stimulated with 100 ng/ml LPS to induce maximal cytokine production. Determination of cytokines CCL2, TNF and IL-6 was measured by specific ELISA following the manufacturer's instructions. […]

CCL2 [3] = assay: CCL2 production by LPS-stimulated monocytes (ELISA); assay type: cell-based, human
Method: as §1, §2
Similar results were obtained when monocytes were stimulated with LPS (100 ng/ ml) and treated with ET743 and the other ecteinascidin compounds, although the overall inhibition was less marked compared with the previous experiment where the tumor supernantant was used as CCL2-inducing stimulus.
CCL2 and TNF production by LPS-stimulated monocytes treated with the indicated doses of the anti-tumor agents was also tested. Cell supernatants were harvested after 24 h-incubation and tested in ELISA. […] None of these compounds interfered with the production of TNF.
A major finding of our work is the inhibitory activity of ecteinascidin 743 on the production of inflammatory cytokines. Among various inflammatory cytokines produced by monocyte/macrophages we have tested IL-6, TNF and the chemokine CCL2. CCL2 is a chemokine attracting monocytes and other leukocyte subsets, and is produced both by monocyte/macrophages and several tumour cells. It has been described that ovarian adenocarcinoma cells produce huge amounts of CCL2 and that their levels correlate with the macrophage content of tumours. CCL2 is therefore one of the most important factors regulating monocyte/macrophages recruitment at the tumour site. […] Thus, lower levels of CCL2 by TAM and tumour cells are likely to reduce the number of macrophages recruited at the tumour site. In the above described in vitro experiments ecteinascidin 743 was present throughout the 16-h culture period. We also checked whether a shorter in vitro exposure to ecteinascidin 743 was sufficient to affect cytokine production. Monocytes exposed to ecteinascidin 743 were washed after 1 hour culture and replaced in fresh medium.

TNF mRNA = assay: Real time-PCR of TNF transcripts in LPS-stimulated monocytes; assay type: cell-based, human
Excerpt: To verify whether the inhibitory effect of ecteinascidin 743 on cytokine production was at the transcriptional level, we analyzed mRNA of CCL2 and TNF from LPS-stimulated macrophages by real time-PCR of CCL2 and TNF transcripts in LPS-stimulated monocytes exposed to ecteinascidin 743.

IL-6 = assay: Constitutive IL-6 production by freshly isolated ovarian tumour cells (ELISA); assay type: cell-based, human; conditions: 16 h
Excerpt: as §3, §4

CCL2 [4] = assay: CCL2 production by TAM (ELISA); assay type: cell-based, human; conditions: 16 h, n=4
Excerpt: as §3, §4

Structure (SMILES): COc1cc2c(cc1O)CCN[C@]21CS[C@@H]2c3c(OC(C)=O)c(C)c4c(c3[C@H](COC1=O)N1[C@@H]2[C@H]2c3c(cc(C)c(OC)c3O)C[C@@H]([C@@H]1O)N2C)OCO4 [ecteinascidin 743]
- patients showing a decrease in the number of monocytes (monocytes): 7
- inhibition at 0.005 µM (CCL2 [1]): 50%
- constitutive production of CCL2 by freshly isolated tumour cells (CCL2 [2]): reduced
- inhibition at 0.005 µM (CCL2 [3]; Homo sapiens, Monocyte, 5 nM, LPS 100 ng/ml, 16 h, n=5): 65%
- inhibition of CCL2 production (CCL2 [3]; monocytes washed after 1 hour culture with drug, fresh medium): 57%
- inhibition of CCL2 production (CCL2 [3]; monocytes, 16 h-treatment): 69%
- TNF mRNA (TNF mRNA): unaffected
- constitutive production of IL-6 by freshly isolated tumour cells (IL-6): reduced
- reduction of LPS-stimulated production of CCL2 by TAM (CCL2 [4]; LPS 100 ng/ml): 50%
- reduction of constitutive production of CCL2 by TAM (CCL2 [4]; no LPS): 43%

Reference: patent US20080076772A1, “Anti-Inflammatory Agents” (Pharma Mar S.A. Sociedad Unipersonal, priority 2004, published 2008)
